# Assay: method code SF-CR, from PMID: 5159517
structure (smiles),measurement,value
COc1cnc(NS(=O)(=O)c2ccc(N)cc2)nc1,logP,0.41

# — the SangsterLogP compilation
